In PMC6412891, “Synthesis and Biological Evaluation of Novel Thiazolyl-Coumarin Derivatives as Potent Histone Deacetylase Inhibitors with Antifibrotic Activity” (Molecules, 2019):

Key:
[1] = system: neonatal rat cardiac fibroblasts (CFs); test: FBS-induced cardiac fibroblast proliferation assay (Alamar Blue); type: cell-based; details: 10% FBS-induced CF proliferation, 48 h, read-out: Inhibition percentage of cell proliferation
[2] = system: histone H4-acetylated in CFs; test: Histone H4-acetylated expression in cardiac fibroblasts, western blot; type: cell-based, rat; details: 5 μM for 8 h, vs. control
Procedure: For this purpose, CFs of neonatal rats were incubated in the presence/absence of the 5a, 6a, 7a and 8a derivatives, and the expression of histone H4–acetylated was measured using the western blot technique.
For the analysis of the protein expression of histone H4–acetylated (ac–H4) and total H4 histone, a number of 1 × 10^6 of CFs seeded in 60 mm plates was used, […] Subsequently, total histones were extracted by the technique of saline precipitation (high salt extraction). Briefly, CFs were scraped from the plates with 1 mL of cold PBS transferring their contents to Eppendorf tubes to be centrifuged for 60 s at 1500 rpm at 4 °C and re–suspended in 400 μL of cold buffer A (10 mM 4-(2-hydroxyethyl)-1-piperazineethanesulfonic acid-KOH (HEPES-KOH) adjusted to pH 7.9, 1.5 mM MgCl2, 10 mM KCl, 0.5 mM dithiothreitol and 0.2 mM phenylmethylsulfonyl fluoride (PMSF). The suspension is left on ice for 10 min and then placed in the vortex for 10 s. The samples were centrifuged for 60 s, subsequently discarding the supernatant fraction. The obtained pellet was re-suspended in 60 μL of cold C buffer (20 mM HEPES-KOH adjusted to pH 7.9, 25% glycerol, 420 mM NaCl, 1.5 mM MgCl2, 0.2 mM EDTA, dithiothreitol 0.5 mM and 0.2 mM PMSF) and placed on ice for 20 min for saline precipitation. Cell debris is removed by centrifugation for 120 s at 1500 rpm at 4 °C and the supernatant fraction, which contains the DNA binding proteins, is stored at minus 20 °C. For the analysis of α–SMA and procollagen type I expression levels, 3×10^5 CFs seeded in 35 mm plates were used, which were incubated together with inhibitor compounds at a 5 μM, in the absence/presence of TGF–β1 (5 ng/mL) for 48 h. To obtain the total proteins, the CFs were washed three times with cold PBS, then scraped and lysed with 50 μL of radio inmuno-precipitation assay (RIPA) lysis buffer (10 mM Tris–HCl pH 7.2, 5 mM EDTA, 150 mM NaCl, Triton X–100 1%, sodium dodecyl sulfate (SDS) 0.1%, deoxycholate 1%, leupeptin 2 μg/mL, aprotinin 10mM, PMSF 1mM and Na3VO4 100μM). The solution was centrifuged for 15 min at 10,000 rpm and at 4 °C. The supernatant fraction containing the total proteins was stored at minus 20 °C. The concentration of proteins obtained was determined by spectrophotometry at 570 nm, using the Bradford method (Bio-Rad, Hercules, CA, USA).
CFs proteins (25 μg), were subjected to 10% sodium dodecyl sulfate-polyacrylamide gel electrophoresis and finally transferred onto a nitrocellulose membrane (Millipore, Billerica, MA, USA). The membrane was washed twice with tris–buffered saline solution containing 0.1% Tween 20 (TBST). […]
Figure 3 CTz non–substituted derivatives inhibit histone H4 acetylation. […] Nuclear extracts were isolated and histone H4 acetylation expression levels were measured by western blot. […]

[3] = target: T1, HDAC1 human recombinant (Homo sapiens, UniProt Q13547); test: HDAC1 inhibitory activity, fluorometric kit; type: biochemical; details: Class I
T1 construct: purchased Enzo Life Science BML-AK511
T1 sequence (Q13547 whole entry): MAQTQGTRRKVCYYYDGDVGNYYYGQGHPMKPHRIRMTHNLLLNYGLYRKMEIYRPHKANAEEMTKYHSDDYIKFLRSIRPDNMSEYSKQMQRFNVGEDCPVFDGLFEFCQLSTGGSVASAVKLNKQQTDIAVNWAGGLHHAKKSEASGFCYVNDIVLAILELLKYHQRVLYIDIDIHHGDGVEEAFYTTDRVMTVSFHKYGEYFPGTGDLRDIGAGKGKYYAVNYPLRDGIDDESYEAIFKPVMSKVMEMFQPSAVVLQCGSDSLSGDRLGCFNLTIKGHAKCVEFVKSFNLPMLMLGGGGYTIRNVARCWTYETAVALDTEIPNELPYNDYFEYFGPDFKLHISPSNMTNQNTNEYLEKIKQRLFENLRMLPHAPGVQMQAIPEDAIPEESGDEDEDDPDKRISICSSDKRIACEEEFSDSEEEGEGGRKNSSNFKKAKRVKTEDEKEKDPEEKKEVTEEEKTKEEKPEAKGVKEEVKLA

| Structure (SMILES) | melting point | inhibition at 1 µM [1] | inhibition at 5 µM [1] | inhibition at 10 µM [1] | histone H4-acetylated expression [2] | IC50 [3] |
| --- | --- | --- | --- | --- | --- | --- |
| O=C(CCCCC1CCSS1)Nc1nc(-c2cc3ccccc3oc2=O)cs1 (stereo not shown) [Compound 5a, 5-[1,2]-Dithiolan-3-yl-N-[4-(2-oxo-2H-chromen-3-yl)-thiazol-2-yl]-pentanamide] | 91 to 92 °C | 57.3 ± 6.7% | 70.7 ± 7.1% | 92.8 ± 6.4% | increase in a statistically significant manner | 60.4 ± 1.7 nM |
| O=C(Nc1nc(-c2cc3ccccc3oc2=O)cs1)c1ccc(O)c(O)c1 [Compound 6a] | – | 3 ± 3.9% | 35 ± 1.9% | 60.6 ± 1.9% | increase in a statistically significant manner | 423 ± 30.2 nM |
| O=C(O)CCCCC(=O)Nc1nc(-c2cc3ccccc3oc2=O)cs1 [Compound 7a] | – | 0.5 ± 0.1% | 26.8 ± 5.9% | 45 ± 5.1% | had no effect | 7690 ± 328 nM |
| O=C(CCCCC(=O)Nc1nc(-c2cc3ccccc3oc2=O)cs1)NO [Compound 8a, 5-[4-(2-Oxo-2H-chromen-3-yl)-thiazol-2-yl-carbamoyl]-N-hydroxypentanamide] | 150 to 152 °C (dec.) | 59.4 ± 6.1% | 79.9 ± 9.7% | 94.4 ± 3.8% | increase in a statistically significant manner | 50.6 ± 2.1 nM |
